Each structure is given as a SMILES string.

This data set can be described thus: Hydrolytic stability in aqueous medium. The format is physicochemical. The settings on record: 50/50 w/w medium of 1,2-dimethoxyethane (DME) and sterilized water. The method, then:
Aqueous solutions of the products from examples 3 and 5 above were prepared as follows. A 0.715% solution of propyl 4-trimethylsiloxybenzoate was prepared in a 50/50 w/w medium of 1,2-dimethoxyethane (DME)and sterilized water. […] Accordingly this DME/water solution (I) will contain 0.500% propyl 4-hydroxybenzoate and 0.180% trimethylsilanol and/or it's condensate hexamethyldisiloxane. In a similar manner a 0.685 % solution of butyl 4-trimethylsiloxybenzoate was prepared in a 50/50 w/w medium of 1,2-dimethoxyethane (DME)and sterilized water. […] Accordingly this DME/water solution (II) will contain 0.500% butyl 4-hydroxybenzoate and 0.170% trimethylsilanol and/or it's condensate hexamethyldisiloxane. The above two aqueous solutions were employed in Zone Inhibition Testing against three bacteria: Pseudomonas aeruginosa, Escherichia coli and Staphylococcus aureus.

For `CCCOC(=O)c1ccc(O[Si](C)(C)C)cc1` [Example 3, propyl 4-trimethylsiloxybenzoate], the hydrolytic stability result is listed as “hydrolytically unstable”.

As to `CCCCOC(=O)c1ccc(O[Si](C)(C)C)cc1` [Example 4, butyl 4-trimethylsiloxybenzoate], the hydrolytic stability result was “hydrolytically unstable”.

The values above are taken from patent publication EP1205482A2, “Alkyl trimethylsiloxybenzoat compounds and method of preparation” (Clariant Life Science Molecules (Florida) Inc., priority 2000, dated 2002).
